Columns and labels:
[1] = test system: B16 cells stably harboring a pCMV-NQO1 expression vector; test: Cell survival of NQO1 overexpressing B16 cells; type: cell-based, murine; conditions: 3 hr exposure, survival 48 hr later
Protocol: (FIG. 1A) NQO1 positive tumor cell lines MC38, TC-1 and Ag104Ld and NQO1 negative cell lines Panc02 and B16 grown in 48-well plates were treated with β-lap (0-8 μM) for a 3 hr followed by washing and replacing medium. Cell viability was determined by Sulforhodamine B (SRB) Assay 4 days later. […] (FIG. 1C) MC38 cells with CRISPR-based NQO1 Knockout (MC38 NQO1KO #5) planted in 96-well plates were exposed to β-lap for 3 hr and cell survival was assessed 48 hr later. […] (FIG. 1E) MC38 cells were exposed to a lethal dose of β-lap (4 μM) for indicated times, then stained with 7-AAD and Annexin V followed by flow cytometry analysis. […] (FIG. 1H) MC38 and B16 NQO1 #1 cells were exposed to β-lap for a 3 hr. Catalase (1000 U/ml) was added and cell survival was assessed 48 hr later. […] Tumor growth was monitored twice a week.
FIGS. 17A-I (related to FIGS. 1A-J). […] (FIG. 17A) NQO1 expression in different murine cancer cell lines was determined by western blotting assay. […] Cell viability was determined by Sulforhodamine B (SRB) Assay 48 hr later. […] Cell viability was determined by SRB Assay 48 hr later. […] Catalase (1000 U/ml) was added and cell viability was assessed 48 hr later. […] Tumor growth was monitored twice a week. […] Data are shown as mean±SEM. **P<0.01, ***P<0.001, ****P<0.0001 determined by unpaired student t-test (FIG. 17G) or two-way ANOVA (FIG. 17H and FIG. 17I). […]

[2] = test system: ROS; test: Cellular ROS / H2O2 detection; type: cell-based, murine; conditions: for ROS level: 3 hr, DCFDA
Protocol: (FIG. 1A) NQO1 positive tumor cell lines MC38, TC-1 and Ag104Ld and NQO1 negative cell lines Panc02 and B16 grown in 48-well plates were treated with β-lap (0-8 μM) for a 3 hr followed by washing and replacing medium. Cell viability was determined by Sulforhodamine B (SRB) Assay 4 days later. […] (FIG. 1C) MC38 cells with CRISPR-based NQO1 Knockout (MC38 NQO1KO #5) planted in 96-well plates were exposed to β-lap for 3 hr and cell survival was assessed 48 hr later. […] (FIG. 1E) MC38 cells were exposed to a lethal dose of β-lap (4 μM) for indicated times, then stained with 7-AAD and Annexin V followed by flow cytometry analysis. […] (FIG. 1H) MC38 and B16 NQO1 #1 cells were exposed to β-lap for a 3 hr. Catalase (1000 U/ml) was added and cell survival was assessed 48 hr later. (FIG. 1I) C57BL/6 mice (n=5/group) were transplanted with MC38 cells and treated with β-lap (0.03 mg, 0.1 mg or 0.3 mg, intratumorally; or 25 mg/kg, i.v.) every other day for four times. (FIG. 1J) C57BL/6 mice were transplanted with MC38 cells (NQO1 WT or KO, n=5/group) and treated with β-lap (0.3 mg, i.t.) every other day for four times. Tumor growth was monitored twice a week.
(FIG. 8A) NQO1 expression in multiple murine tumor lines was immunoblotted as indicated. (FIG. 8B) NQO1^+ cells (MC38, TC-1, and Ag104Ld) and NQO1^− cells (B16 and Pan02) were treated for 3 h with β-lap±DIC (50 μM). Drugs were removed and survival assessed 5 days later. (FIG. 8C) Relative H2O2 levels were assessed in various cells treated with β-lap for 3 h at the indicated doses using CellRox-Glo. Values were normalized to DMSO-treated control cells. (FIG. 8D) TC-1 cells exposure to β-lap for 12 h, later PARP-1 and Caspase-3 levels were analyzed by western blotting assay. […]
(FIG. 21A) Viability of murine cell lines following IB-DNQ treatment for 4 h. […] (FIGS. 21D-E) DNA double strand break was assessed via comet assay (FIG. 21D) and γH2AX foci/nuclei immunofluorescence (FIG. 21E). (FIG. 21F) MC38 cell death after a 4 h exposure to IB-DNQ was determined by 7AAD and Annexin V staining using flow cytometry analysis.

## CC1(C)CCC2=C(O1)c1ccccc1C(=O)C2=O [β-lap, β-lapachone]
[1]
  response to β-lap (cell survival): sensitivity to β-lap
[2]; NQO1+ cells but not NQO1− cells, 3 h exposure, CellRox-Glo
  H2O2 level: High level of H2O2
[2]; NQO1 null lines
  ROS level: much less
[2]; NQO1 positive murine tumor line
  ROS level: high level of ROS
